Test results published in ChEMBL document CHEMBL6153132 (J Med Chem, 2025).
Active and inactive are the calls of the source. The rule behind the calls is not given here.

What was measured:
Histone deacetylase 1 = Histone deacetylase 1 (Homo sapiens, UniProt Q13547); experiment: Inhibition of human HDAC1 using ZMAL(Z-Lys(Ac)-AMC as substrate preincubated for 60 mins followed by substrate addition and measured after 90 mins by microplate reader analysis
CAL-27 [1] = experiment: cells; settings: Homo sapiens, CAL-27, 72 h
Histone deacetylase 3 = Histone deacetylase 3 (Homo sapiens, UniProt O15379); experiment: Inhibition of human HDAC3 using ZMAL(Z-Lys(Ac)-AMC as substrate preincubated for 60 mins followed by substrate addition and measured after 90 mins by microplate reader analysis
Sequence of Histone deacetylase 3 (O15379 whole entry): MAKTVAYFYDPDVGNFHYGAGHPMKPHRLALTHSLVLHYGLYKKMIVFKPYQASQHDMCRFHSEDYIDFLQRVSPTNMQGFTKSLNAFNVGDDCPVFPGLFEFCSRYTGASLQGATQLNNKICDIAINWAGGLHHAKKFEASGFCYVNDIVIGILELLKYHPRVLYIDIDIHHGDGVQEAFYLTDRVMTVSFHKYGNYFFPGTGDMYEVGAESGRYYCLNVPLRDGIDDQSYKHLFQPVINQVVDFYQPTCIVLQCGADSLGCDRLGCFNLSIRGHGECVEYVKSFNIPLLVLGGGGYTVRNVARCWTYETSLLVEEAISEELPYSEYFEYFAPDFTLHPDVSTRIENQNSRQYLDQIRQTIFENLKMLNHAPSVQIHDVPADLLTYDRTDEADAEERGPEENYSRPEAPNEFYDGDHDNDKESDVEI

cells = settings: Homo sapiens, Cal27CisR, 72 h
Plasmodium falciparum [2] = experiment: microbe, parasite or virus in culture; settings: 3D7, 72 h
[3] = molecular target: T1, Protein deacetylase HDAC6 (Homo sapiens, UniProt Q9UBN7); experiment: Inhibition of human HDAC6 using ZMAL(Z-Lys(Ac)-AMC as substrate preincubated for 15 mins followed by substrate addition and measured after 90 mins by microplate reader analysis
T1 sequence (Q9UBN7 whole entry): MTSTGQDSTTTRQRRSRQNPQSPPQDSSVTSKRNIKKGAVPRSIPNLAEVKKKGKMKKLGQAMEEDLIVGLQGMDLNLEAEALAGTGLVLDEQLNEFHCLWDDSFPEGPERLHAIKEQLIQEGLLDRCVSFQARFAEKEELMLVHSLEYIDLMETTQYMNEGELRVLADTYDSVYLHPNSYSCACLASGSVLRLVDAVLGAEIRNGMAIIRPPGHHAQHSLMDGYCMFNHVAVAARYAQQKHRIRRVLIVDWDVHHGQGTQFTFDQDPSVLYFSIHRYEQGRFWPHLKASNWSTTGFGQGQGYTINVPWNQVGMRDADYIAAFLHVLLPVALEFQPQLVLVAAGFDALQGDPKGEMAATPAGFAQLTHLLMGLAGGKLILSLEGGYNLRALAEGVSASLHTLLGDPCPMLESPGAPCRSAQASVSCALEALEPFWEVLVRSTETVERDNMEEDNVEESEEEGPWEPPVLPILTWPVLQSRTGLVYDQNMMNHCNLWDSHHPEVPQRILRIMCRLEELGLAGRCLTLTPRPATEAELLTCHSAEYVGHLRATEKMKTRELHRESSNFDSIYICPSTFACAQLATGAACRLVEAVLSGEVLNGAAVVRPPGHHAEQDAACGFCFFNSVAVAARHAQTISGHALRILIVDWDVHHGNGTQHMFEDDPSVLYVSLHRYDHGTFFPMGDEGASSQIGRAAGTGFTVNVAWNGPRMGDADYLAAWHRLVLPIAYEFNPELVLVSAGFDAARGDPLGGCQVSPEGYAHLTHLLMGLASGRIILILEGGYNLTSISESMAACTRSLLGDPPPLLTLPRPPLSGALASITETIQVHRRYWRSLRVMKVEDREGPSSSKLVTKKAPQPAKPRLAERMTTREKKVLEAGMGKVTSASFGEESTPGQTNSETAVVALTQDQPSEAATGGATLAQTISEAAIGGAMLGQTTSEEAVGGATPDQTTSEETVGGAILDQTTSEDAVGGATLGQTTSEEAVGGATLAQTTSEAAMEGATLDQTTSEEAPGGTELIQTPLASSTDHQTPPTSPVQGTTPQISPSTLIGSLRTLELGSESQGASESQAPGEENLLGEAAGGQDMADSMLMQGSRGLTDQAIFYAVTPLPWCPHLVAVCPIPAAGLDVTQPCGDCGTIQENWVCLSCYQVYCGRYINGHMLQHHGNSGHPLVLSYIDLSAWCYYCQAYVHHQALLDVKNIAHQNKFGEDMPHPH

Plasmodium falciparum [4] = experiment: microbe, parasite or virus in culture; settings: Dd2, 72 h
[5] = Metabolic stability in human liver microsome assessed as intrinsic clearance; type: ADME; settings: microsomes
[6] = Metabolic stability in human liver microsome assessed as half life; type: ADME, microsomes
A2780 = experiment: Cytotoxicity against human A2780 cells assessed as cell viability incubated for 72 hrs by MTS assay; type: functional, cell-based; settings: A2780, 72 h
A2780cisR = experiment: Cytotoxicity against human A2780 cisR cells assessed as cell viability up to 100 uM incubated for 72 hrs by MTS assay; type: functional, cell-based
CAL-27 [7] = experiment: Cytotoxicity against human CAL-27 cells assessed as cell viability incubated for 72 hrs by MTS assay; type: functional, cell-based; settings: CAL-27, 72 h
[8] = Cytotoxicity against human Cal27CisR cells assessed as cell viability incubated for 72 hrs by MTS assay; type: functional, cell-based

Sequence of Histone deacetylase 1 (Q13547 whole entry): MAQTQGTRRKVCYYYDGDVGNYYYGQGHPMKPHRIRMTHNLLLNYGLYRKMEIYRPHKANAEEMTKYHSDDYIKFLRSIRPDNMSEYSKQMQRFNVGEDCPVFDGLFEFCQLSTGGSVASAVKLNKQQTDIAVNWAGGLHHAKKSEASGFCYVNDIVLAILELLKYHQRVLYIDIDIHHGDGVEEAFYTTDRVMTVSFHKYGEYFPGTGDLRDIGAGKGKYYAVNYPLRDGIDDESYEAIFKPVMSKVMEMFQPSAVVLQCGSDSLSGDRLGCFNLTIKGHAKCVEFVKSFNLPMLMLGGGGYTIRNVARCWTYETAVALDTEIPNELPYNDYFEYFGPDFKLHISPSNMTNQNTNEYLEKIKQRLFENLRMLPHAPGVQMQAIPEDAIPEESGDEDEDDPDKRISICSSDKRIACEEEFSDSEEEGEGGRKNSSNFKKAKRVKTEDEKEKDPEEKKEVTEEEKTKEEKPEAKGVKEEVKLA

CSc1ccccc1C(=O)Nc1ccc(CN(CC(=O)NCc2ccccc2)C(=O)c2ccc(N(C)C)cc2)cc1
IC50 (Histone deacetylase 1): > 10 µM | IC50 (CAL-27 [1]): > 100 µM | IC50 (Histone deacetylase 3): > 10 µM | IC50 (cells): > 100 µM | IC50 (Plasmodium falciparum [2]): > 100 µM | IC50 [3]: > 10 µM

CN(C)c1ccc(C(=O)N(CC(=O)NCc2ccccc2)Cc2ccc(-c3nnc(C(F)F)o3)cc2)cc1
IC50 (Histone deacetylase 1): > 10 µM | IC50 (CAL-27 [1]): > 100 µM | IC50 (Plasmodium falciparum [4]): 23.7 µM | IC50 (cells): > 100 µM | IC50 (Plasmodium falciparum [2]): 18.1 µM | IC50 [3]: > 10 µM

CSc1ccccc1C(=O)NCCCCCN(CC(=O)NCc1ccccc1)C(=O)c1ccc(N(C)C)cc1
IC50 (Histone deacetylase 1): > 10 µM | IC50 (CAL-27 [1]): 63.7 µM | IC50 (Histone deacetylase 3): > 10 µM | IC50 (Plasmodium falciparum [4]): 37.6 µM | IC50 (cells): 55 µM | IC50 [3]: > 10 µM

CN(C)c1ccc(C(=O)N(CC(=O)NCc2ccccc2)Cc2ccc(C(=O)O)cc2)cc1
IC50 (Histone deacetylase 1): 13.8 µM | IC50 (CAL-27 [1]): 74.3 µM | IC50 (Plasmodium falciparum [4]): > 100 µM | IC50 (cells): > 100 µM | IC50 (Plasmodium falciparum [2]): > 100 µM | IC50 [3]: > 10 µM

CN(C)c1ccc(C(=O)N(CC(=O)NCc2ccccc2)Cc2ccc(C(=O)NCCSSCCNC(=O)c3ccc(CN(CC(=O)NCc4ccccc4)C(=O)c4ccc(N(C)C)cc4)cc3)cc2)cc1
IC50 (Histone deacetylase 1): 4.54 µM | IC50 (CAL-27 [1]): > 100 µM | IC50 (Plasmodium falciparum [4]): > 100 µM | IC50 (cells): > 100 µM | IC50 (Plasmodium falciparum [2]): > 100 µM | IC50 [3]: > 10 µM

CC(=O)SCC(=O)NCCCCCCN(CC(=O)NCc1ccccc1)C(=O)c1ccc(N(C)C)cc1
IC50 (CAL-27 [1]): 33.4 µM | IC50 (Plasmodium falciparum [4]): 85.1 µM | IC50 (cells): 28.8 µM | IC50 (Plasmodium falciparum [2]): > 100 µM

CN(C)c1ccc(C(=O)N(CC(=O)NCc2ccccc2)Cc2ccc(C(=O)Nc3ccccc3N)cc2)cc1
CLH [5]: 79.4 µL/min/mg | half-life ([6]; liver microsomes): 17.5 min

Nc1cc(F)ccc1NC(=O)/C=C/c1cnn(C/C=C/c2ccccc2)c1
IC50 (A2780): 12.9 µM | Activity (A2780cisR): inactive | IC50 (CAL-27 [7]): 43.1 µM | IC50 [8]: 49.4 µM

CN(C)c1ccc(C(=O)N(CCCCCCNC(=O)c2ccccc2O)CC(=O)NCc2ccccc2)cc1
IC50 (Histone deacetylase 1): > 10 µM | IC50 (cells): > 100 µM | IC50 [3]: > 10 µM

CN(C)c1ccc(C(=O)N(CCCCCC(=O)NCCSSCCNC(=O)CCCCCN(CC(=O)NCc2ccccc2)C(=O)c2ccc(N(C)C)cc2)CC(=O)NCc2ccccc2)cc1
IC50 (Histone deacetylase 1): 7.1 µM | IC50 (CAL-27 [1]): 98.7 µM | IC50 (Plasmodium falciparum [4]): > 100 µM | IC50 (cells): > 100 µM | IC50 (Plasmodium falciparum [2]): 11.7 µM | IC50 [3]: > 10 µM

CSc1ccccc1C(=O)NCCCCCCCN(CC(=O)NCc1ccccc1)C(=O)c1ccc(N(C)C)cc1
IC50 (Histone deacetylase 1): > 10 µM | IC50 (CAL-27 [1]): 70.9 µM | IC50 (Histone deacetylase 3): > 10 µM | IC50 (Plasmodium falciparum [4]): 23 µM | IC50 (cells): > 100 µM | IC50 (Plasmodium falciparum [2]): 34.9 µM | IC50 [3]: > 10 µM

CSc1ccccc1C(=O)NCCCCCCN(CC(=O)NCc1ccccc1)C(=O)c1ccc(N(C)C)cc1
IC50 (Histone deacetylase 1): > 10 µM | IC50 (CAL-27 [1]): 68.9 µM | IC50 (Histone deacetylase 3): > 10 µM | IC50 (Plasmodium falciparum [4]): 6.66 µM | IC50 (cells): 65.6 µM | IC50 (Plasmodium falciparum [2]): 8.97 µM | IC50 [3]: > 10 µM

CN(C)c1ccc(C(=O)N(CCCCCC(=O)O)CC(=O)NCc2ccccc2)cc1
IC50 (Histone deacetylase 1): > 10 µM | IC50 (CAL-27 [1]): > 100 µM | IC50 (Plasmodium falciparum [4]): > 100 µM | IC50 (cells): > 100 µM | IC50 (Plasmodium falciparum [2]): > 100 µM | IC50 [3]: > 10 µM

CN(C)c1ccc(C(=O)N(CC(=O)NCc2ccccc2)Cc2ccc(-c3nnc(C(F)(F)F)o3)cc2)cc1
IC50 (Histone deacetylase 1): > 10 µM | IC50 (CAL-27 [1]): > 100 µM | IC50 (Plasmodium falciparum [4]): 36.8 µM | IC50 (cells): > 100 µM | IC50 (Plasmodium falciparum [2]): 34.2 µM | IC50 [3]: > 10 µM

CSc1ccccc1NC(=O)CCCCCN(CC(=O)NCc1ccccc1)C(=O)c1ccc(N(C)C)cc1
IC50 (Histone deacetylase 1): > 10 µM | IC50 (CAL-27 [1]): 79.4 µM | IC50 (Histone deacetylase 3): > 10 µM | IC50 (Plasmodium falciparum [4]): 28.7 µM | IC50 (cells): 61.3 µM | IC50 (Plasmodium falciparum [2]): 56.9 µM | IC50 [3]: > 10 µM

CNC(=O)CCCCCN(CC(=O)NCc1ccccc1)C(=O)c1ccc(N(C)C)cc1
IC50 (Histone deacetylase 1): > 10 µM | IC50 (CAL-27 [1]): > 100 µM | IC50 (Plasmodium falciparum [4]): > 100 µM | IC50 (cells): > 100 µM | IC50 (Plasmodium falciparum [2]): > 100 µM | IC50 [3]: > 10 µM

CC(=O)SCC(=O)Nc1ccc(CN(CC(=O)NCc2ccccc2)C(=O)c2ccc(N(C)C)cc2)cc1
IC50 (CAL-27 [1]): > 100 µM | IC50 (Plasmodium falciparum [4]): > 100 µM | IC50 (cells): > 100 µM | IC50 (Plasmodium falciparum [2]): > 100 µM

CCCNNC(=O)c1ccc(CN(CC(=O)NCc2ccccc2)C(=O)c2ccc(N(C)C)cc2)cc1
CLH [5]: 92.2 µL/min/mg | t1/2 ([6]; microsomes): 15.04 min
